One block for each compound: values may come before it.
Assay: logP(acid) by reverse phase (C18) chromatography at pH 2.3
Assay type: physicochemical
[1] = reverse phase (C18) chromatography at pH 2.3
[2] = reverse phase (C18) chromatography, pH 2.3
[3] = reverse phase (C18) chromatography, pH2.3, 0.1% phosphoric acid / acetonitrile gradient 10-95%
[4] = reverse phase (C18) chromatography at pH2.3, 0.1% phosphoric acid aqueous solution / acetonitrile, linear gradient 10-95%
[5] = reverse phase (C18) chromatography at pH2.3, 0.1% phosphoric acid aqueous solution / acetonitrile, linear gradient 10-95% acetonitrile
[6] = reverse phase (C18) chromatography, pH2.3, 0.1% phosphoric acid aqueous solution / acetonitrile, linear gradient 10-95% acetonitrile

Structure (SMILES): Cc1nc(Cn2nc(C(F)F)c(Cl)c2C(F)F)ccc1NC(=O)c1cccc(Cl)c1C(=O)NC(C)C[S+](C)[O-] (mixture of isomers) [13-58]
logP (acid) [1]: 2.13

Structure (SMILES): Cc1cc(Cn2nc(C(F)(F)F)cc2C(F)(F)F)ncc1NC(=O)c1cccc(I)c1C(=O)NC(C)C[S+](C)[O-] (mixture of isomers) [13-182]
logP (acid) [1]: logP (acid) 2.3

Structure (SMILES): Cc1nc(Cn2nc(C(F)(F)C(F)(F)F)cc2C(F)(F)F)ccc1NC(=O)c1cccc(Br)c1C(=O)NC(C)C[S+](C)[O-] (mixture of isomers) [13-188]
logP (acid) [1]: logP (acid) 2.81

Structure (SMILES): Cc1nc(Cn2nc(C(F)(F)C(F)(F)F)cc2C(F)(F)F)ccc1NC(=O)c1cccc(I)c1C(=O)NC(C)C[S+](C)[O-] (mixture of isomers) [13-190]
logP (acid) [1]: logP (acid) 2.76

Structure (SMILES): Cc1nc(Cn2nc(C(F)(F)F)cc2C(F)(F)F)ccc1NC(=O)c1cccc(S(=O)(=O)N(C)C)c1C(=O)NC(C)C[S+](C)[O-] (mixture of isomers) [13-288]
logP (acid) [2]: logP (acid) 2.37

Structure (SMILES): CNC(=O)c1cc(Cl)cc(Cl)c1C(=O)Nc1cc(Cl)ccc1Cn1nc(C(F)(F)F)nc1C(F)(F)F [3-2]
logP (acid) [3]: logP (acid) 3.84

Structure (SMILES): CSC[C@H](C)NC(=O)c1c(Cl)cccc1C(=O)Nc1cc(F)c(C)nc1Cn1nc(C(F)(F)F)cc1C(F)(F)F [3-7]
logP (acid) [3]: logP (acid) 4.28

Structure (SMILES): CSC[C@H](C)NC(=O)c1c(Cl)cccc1C(=O)Nc1cc(F)c(C)cc1Cn1nc(C(F)(F)F)nc1C(F)(F)F [3-8]
logP (acid) [3]: logP (acid) 4.13

Structure (SMILES): CNC(=O)c1cc(Cl)cc(Cl)c1C(=O)Nc1cc(Cl)cc(Cn2nc(C(F)(F)F)nc2C(F)(F)F)c1 [4-1]
logP (acid) [4]: logP (acid) 3.32

Structure (SMILES): CSC[C@H](C)NC(=O)c1c(Cl)cccc1C(=O)Nc1cccc(Cn2cc(C(F)(F)C(F)(F)F)c(C(F)(F)C(F)(F)F)n2)c1C [4-6]
logP (acid) [4]: logP (acid) 4.52

Structure (SMILES): CSC[C@H](C)NC(=O)c1c(Cl)cccc1C(=O)Nc1cccc(Cn2nc(C(F)(F)C(F)(F)F)nc2-c2ccc(Cl)cc2)c1C [4-9]
logP (acid) [4]: logP (acid) 4.32

Structure (SMILES): CSC[C@H](C)NC(=O)c1c(Cl)cccc1C(=O)Nc1cccc(Cn2nc(C(F)(F)C(F)(F)F)nc2-c2ccc(C(F)(F)F)cc2)c1C [4-10]
logP (acid) [4]: logP (acid) 4.44

Structure (SMILES): CSC[C@H](C)NC(=O)c1c(Cl)cccc1C(=O)Nc1cccc(Cn2nc(C(F)(F)C(F)(F)F)nc2-c2ccc(Cl)nc2)c1C [4-11]
logP (acid) [4]: logP (acid) 3.8

Structure (SMILES): CSC[C@H](C)NC(=O)c1c(Cl)cccc1C(=O)Nc1cccc(Cn2nnc(-c3ccc(C(F)(F)F)cc3)n2)c1 [4-16]
logP (acid) [4]: logP (acid) 3.86

Structure (SMILES): Cc1cc(Cn2nc(C(F)(F)F)nc2C(F)(F)F)c(F)cc1NC(=O)c1cccc(Cl)c1C(=O)N[C@@H](C)C[S+](C)[O-] (stereo partly drawn) [7-8]
logP (acid) [5]: logP (acid) 2.63

Structure (SMILES): Cc1cc(Cn2nc(C(F)(F)F)nc2C(F)(F)F)c(F)cc1NC(=O)c1cccc(Cl)c1C(=O)N[C@@H](C)CS(C)(=O)=O [7-9]
logP (acid) [5]: logP (acid) 3.02

Structure (SMILES): CSC[C@H](C)NC(=O)c1c(Br)cccc1C(=O)Nc1cc(F)c(Cn2nc(C(F)(F)F)cc2C(F)(F)F)cc1C [7-10]
logP (acid) [5]: logP (acid) 4.37

Structure (SMILES): CSC[C@H](C)NC(=O)c1c(Br)cccc1C(=O)Nc1cc(F)c(Cn2nc(C(F)(F)F)nc2C(F)(F)F)cc1C [7-13]
logP (acid) [5]: logP (acid) 4.07

Structure (SMILES): Cc1cc(Cn2nc(C(F)(F)F)nc2C(F)(F)F)c(F)cc1NC(=O)c1cccc(Br)c1C(=O)N[C@@H](C)C[S+](C)[O-] (stereo partly drawn) [7-14]
logP (acid) [5]: logP (acid) 2.68

Structure (SMILES): Cc1cc(Cn2nc(C(F)(F)F)nc2C(F)(F)F)c(F)cc1NC(=O)c1cccc(Br)c1C(=O)N[C@@H](C)CS(C)(=O)=O [7-15]
logP (acid) [5]: logP (acid) 3.08

Structure (SMILES): CSC[C@H](C)NC(=O)c1c(SC)cccc1C(=O)Nc1cc(F)c(Cn2nc(C(F)(F)F)nc2C(F)(F)F)cc1C [7-23]
logP (acid) [5]: logP (acid) 3.96

Structure (SMILES): CSC[C@H](C)NC(=O)c1c(Cl)cccc1C(=O)Nc1cc(F)c(Cn2nc(C(F)(F)F)cc2C(F)(F)F)nc1C [7-150]
logP (acid) (reverse phase (C18) chromatography at pH2.3, 0.1% phosphoric acid aqueous solution / acetonitrile gradient): logP (acid) 4.13

Structure (SMILES): Cc1nc(Cn2nc(C(F)(F)F)cc2C(F)(F)F)ccc1NC(=O)c1ccc(F)c(Br)c1C(=O)N[C@@H](C)C[S+](C)[O-] (stereo partly drawn) [9-11]
logP (acid) [6]: logP (acid) 2.51

Structure (SMILES): CSC[C@H](C)NC(=O)c1c(C(=O)Nc2ccc(Cn3nc(C(F)(F)C(F)(F)F)nc3C(F)(F)F)cc2C)ccc(F)c1Br [9-12]
logP (acid) [6]: logP (acid) 4.29

Structure (SMILES): Cc1cc(Cn2nc(C(F)(F)C(F)(F)F)nc2C(F)(F)F)ccc1NC(=O)c1ccc(F)c(Br)c1C(=O)N[C@@H](C)C[S+](C)[O-] (stereo partly drawn) [9-13]
logP (acid) [6]: logP (acid) 2.96

Structure (SMILES): CSC[C@H](C)NC(=O)c1c(C(=O)Nc2ccc(Cn3nc(C(F)(F)F)cc3C(F)(F)F)cc2C)ccc(C(F)(F)F)c1Cl [9-14]
logP (acid) [6]: logP (acid) 4.62

Structure (SMILES): CSC[C@H](C)NC(=O)c1c(C(=O)Nc2ccc(Cn3nc(C(F)(F)C(F)(F)F)nc3C(F)(F)F)cc2C)ccc([N+](=O)[O-])c1Cl [9-15]
logP (acid) [6]: logP (acid) 4.27

Structure (SMILES): Cc1cc(Cn2nc(C(F)(F)F)cc2C(F)(F)F)ccc1NC(=O)c1ccc(C(F)(F)F)c(Cl)c1C(=O)N[C@@H](C)CS(C)(=O)=O [9-17]
logP (acid) [6]: logP (acid) 3.22

Structure (SMILES): CSC[C@H](C)NC(=O)c1c(C(=O)Nc2ccc(Cn3nc(C(F)(F)F)nc3C(F)(F)F)cc2C)ccc(C(F)(F)F)c1Cl [9-18]
logP (acid) [6]: logP (acid) 4.30

Structure (SMILES): Cc1cc(Cn2nc(C(F)(F)F)nc2C(F)(F)F)ccc1NC(=O)c1ccc(C(F)(F)F)c(Cl)c1C(=O)N[C@@H](C)C[S+](C)[O-] (stereo partly drawn) [9-19]
logP (acid) [6]: logP (acid) 2.98

Structure (SMILES): Cc1nc(Cn2nc(C(F)(F)F)cc2C(F)(F)F)ccc1NC(=O)c1ccc(F)c(Br)c1C(=O)N[C@@H](C)CS(C)(=O)=O [9-21]
logP (acid) [6]: logP (acid) 3.27

Structure (SMILES): Cc1cc(Cn2nc(C(F)(F)C(F)(F)F)nc2C(F)(F)F)ccc1NC(=O)c1ccc(F)c(Br)c1C(=O)N[C@@H](C)CS(C)(=O)=O [9-22]
logP (acid) [6]: logP (acid) 3.36

Structure (SMILES): CSC[C@H](C)NC(=O)c1c(C(=O)Nc2ccc(Cn3nc(C(F)(F)C(F)(F)F)nc3C(F)(F)F)cc2C)ccc(C(F)(F)F)c1Cl [9-23]
logP (acid) [6]: logP (acid) 4.63

Structure (SMILES): Cc1cc(Cn2nc(C(F)(F)C(F)(F)F)nc2C(F)(F)F)ccc1NC(=O)c1ccc(C(F)(F)F)c(Cl)c1C(=O)N[C@@H](C)CS(C)(=O)=O [9-25]
logP (acid) [6]: logP (acid) 3.70

Structure (SMILES): CSC[C@H](C)NC(=O)c1c(C(=O)Nc2ccc(Cn3nc(C(F)(F)F)cc3C(F)(F)F)nc2C)ccc(C(F)(F)F)c1Cl [9-26]
logP (acid) [6]: logP (acid) 4.25

Structure (SMILES): CSC[C@H](C)NC(=O)c1c(Cl)cc(Cl)cc1C(=O)Nc1ccc(Cn2nc(C(F)(F)F)cc2C(F)(F)F)nc1C [10-1]
logP (acid) [1]: logP (acid) 4.18

Structure (SMILES): Cc1nc(Cn2nc(C(F)(F)F)cc2C(F)(F)F)ccc1NC(=O)c1cc(Cl)cc(Cl)c1C(=O)N[C@@H](C)C[S+](C)[O-] (stereo partly drawn) [10-2]
logP (acid) [1]: logP (acid) 2.83

Structure (SMILES): CSC[C@H](C)NC(=O)c1c(Cl)cc(Cl)cc1C(=O)Nc1ccc(Cn2nc(C(F)(F)C(F)(F)F)nc2C(F)(F)F)cc1C [10-10]
logP (acid) [1]: logP (acid) 4.64

Structure (SMILES): Cc1cc(Cn2nc(C(F)(F)C(F)(F)F)nc2C(F)(F)F)ccc1NC(=O)c1cc(Cl)cc(Cl)c1C(=O)N[C@@H](C)C[S+](C)[O-] (stereo partly drawn) [10-11]
logP (acid) [1]: logP (acid) 3.28

Structure (SMILES): Cc1cc(Cn2nc(C(F)(F)C(F)(F)F)nc2C(F)(F)F)ccc1NC(=O)c1cc(Cl)cc(Cl)c1C(=O)N[C@@H](C)CS(C)(=O)=O [10-12]
logP (acid) [1]: logP (acid) 3.61

Structure (SMILES): Cc1cc(Cn2nc(C(F)(F)C(F)(F)F)nc2C(F)(F)F)ccc1NC(=O)c1cc(F)cc(Cl)c1C(=O)N[C@@H](C)C[S+](C)[O-] (stereo partly drawn) [10-14]
logP (acid) [1]: logP (acid) 3.00

Structure (SMILES): Cc1cc(Cn2nc(C(F)(F)C(F)(F)F)nc2C(F)(F)F)ccc1NC(=O)c1cc(F)cc(Cl)c1C(=O)N[C@@H](C)CS(C)(=O)=O [10-15]
logP (acid) [1]: logP (acid) 3.37

Now from value to compound:

logP (acid) [2]: logP (acid) 3.43
Structure (SMILES): CSCC(C)NC(=O)c1c(Cl)cccc1C(=O)Nc1ccc(Cn2cc(C3=NOC(c4cc(Cl)cc(Cl)c4)(C(F)(F)F)C3)c(C(F)(F)F)n2)cc1C (mixture of isomers) [13-201]

logP (acid) [2]: logP (acid) 2.76
Structure (SMILES): CSCC(C)NC(=O)c1c(Cl)cccc1C(=O)Nc1ccc(C(O)c2cc(C(F)(F)C(F)(F)F)n[nH]2)cc1C (mixture of isomers) [13-231]

logP (acid) [2]: logP (acid) 2.77
Structure (SMILES): CSCC(C)NC(=O)c1c(SC)cccc1C(=O)Nc1ccc(C(O)c2cc(C(F)(F)C(F)(F)F)n[nH]2)cc1C (mixture of isomers) [13-340]

logP (acid) [2]: logP (acid) 2.02
Structure (SMILES): CSCC(C)NC(=O)c1c(C(=O)Nc2ccc(C(O)c3cc(C(F)(F)C(F)(F)F)n[nH]3)cc2C)cccc1S(C)(=O)=O (mixture of isomers) [13-341]

logP (acid) [1]: logP (acid) 3.72
Structure (SMILES): CSC[C@H](C)NC(=O)c1c(I)ccc(F)c1C(=O)Nc1ccc(Cn2nc(C(F)(F)F)cc2C(F)(F)F)nc1C [11-1]

logP (acid) [1]: logP (acid) 4.14
Structure (SMILES): CSCC(C)NC(=O)c1c(Cl)ccc(Cl)c1C(=O)Nc1ccc(Cn2nc(C(F)(F)F)cc2C(F)(F)F)nc1C (stereo not drawn) [11-4]

logP (acid) [1]: logP (acid) 2.65
Structure (SMILES): Cc1nc(Cn2nc(C(F)(F)F)cc2C(F)(F)F)ccc1NC(=O)c1c(Cl)ccc(Cl)c1C(=O)N[C@@H](C)C[S+](C)[O-] (stereo partly drawn) [11-5]

logP (acid) [1]: logP (acid) 3.05
Structure (SMILES): Cc1nc(Cn2nc(C(F)(F)F)cc2C(F)(F)F)ccc1NC(=O)c1c(Cl)ccc(Cl)c1C(=O)N[C@@H](C)CS(C)(=O)=O [11-6]

logP (acid) [1]: logP (acid) 3.89
Structure (SMILES): CSC[C@H](C)NC(=O)c1c(Cl)ccc(Br)c1C(=O)Nc1ccc(Cn2nc(C(F)(F)F)cc2C(F)(F)F)nc1C [11-13]

logP (acid) [1]: logP (acid) 2.68
Structure (SMILES): Cc1nc(Cn2nc(C(F)(F)F)cc2C(F)(F)F)ccc1NC(=O)c1c(Br)ccc(Cl)c1C(=O)N[C@@H](C)C[S+](C)[O-] (stereo partly drawn) [11-14]

logP (acid) [1]: logP (acid) 3.05
Structure (SMILES): Cc1nc(Cn2nc(C(F)(F)F)cc2C(F)(F)F)ccc1NC(=O)c1c(Br)ccc(Cl)c1C(=O)N[C@@H](C)CS(C)(=O)=O [11-15]

logP (acid) [1]: logP (acid) 3.63
Structure (SMILES): COc1ccc(Br)c(C(=O)Nc2ccc(Cn3nc(C(F)(F)F)cc3C(F)(F)F)nc2C)c1C(=O)N[C@@H](C)CSC [11-16]

Reference: patent US20110184188A1, “Insecticidal Benzenedicarboxamide Derivative” (priority 2008, published 2011)
